Test results taken from patent publication US11597920B2, “Compositions and methods for enhancing reverse transcriptase activity and/or reducing the inhibition of reverse transcriptase” (BIO-RAD LABORATORIES, INC., priority 2019, dated 2023).

Legend:
Format in all cases: biochemical
[1] = tested on: thermo-stable RT (e.g., MMLV or engineered MMLV); assay: RT-qPCR: RT tolerance to heparin (Cq delay of RT products); settings: for Heparin tolerance: FIG. 2
Protocol: (§1) An RT reaction buffer was formulated so that the RT reaction can be carried out after being mixed together with thermo-stable RT (e.g., MMLV or engineered MMLV) and RNA templates (e.g., Hela RNA). […] The RT reaction was completed in a T100 Thermo Cycler (Bio-Rad Laboratories Inc. Hercules, Calif.). The RT reaction protocol was as follows: 50° C. 20 min, 95° C. 1 min, and incubation at 4° C.
(§2) After RT reaction, the RT products were used for qPCR reaction using SsoAdvanced Universal SYBR Green Supermix (Bio-Rad Laboratories Inc. Hercules, Calif.). The RT product inputs in qPCR reaction ranged from 10% to 0.1% of qPCR reaction, depending on the expression abundance of target genes. Target gene primers (Table 3) at 250 nM were used. The following protocol of qPCR was used on CFC348 Thermo Cycler (Bio-Rad Laboratories Inc. Hercules, Calif.): 95° C. denaturation for 2 min, 40 cycles of 95° C. 5S denaturation, 60° C. 30S annealing/extension/read.

[2] = tested on: thermo-stable RT (e.g., MMLV or engineered MMLV); assay: RT-qPCR: RT tolerance to other inhibitors (ethanol, guanidine hydrochloride); settings: 7.5% Ethanol and 50 mM Guanidinum hydrochloride
Protocol: as §1, §2

[3] = tested on: thermo-stable RT (e.g., MMLV or engineered MMLV); assay: RT-qPCR: RT tolerance to tannic acid
Protocol: (§3) An RT reaction buffer was formulated so that the RT reaction can be carried out after being mixed together with thermo-stable RT (e.g., MMLV or engineered MMLV) and RNA templates (e.g., Hela RNA). In a 20 μl RT reaction mix there is 1 u of RT enzyme, 10 u of Rnasin (Rnase inhibitor), nucleotides each at 1.5 mM (e.g., dATP, dCTP, dGTP, dTTP), random hexamer, oligo dT, or gene-specific oligo nucleotides at appropriate concentration (0.5 to 1 uM), 4% glycerol, 0.01% detergent (e.g., Tween 20), with or without RT inhibitors (e.g., Heparin, Ethanol, Guanidine Hydrochloride, Formalin, Tannic acid, etc.) or additives that improve RT reaction efficiency or sensitivity (e.g., PVSA). The RT reaction was completed in a T100 Thermo Cycler (Bio-Rad Laboratories Inc. Hercules, Calif.). The RT reaction protocol was as follows: 50° C. 20 min, 95° C. 1 min, and incubation at 4° C.
After RT reaction, the RT products were used for qPCR reaction using SsoAdvanced Universal SYBR Green Supermix (Bio-Rad Laboratories Inc. Hercules, Calif.). The RT product inputs in qPCR reaction ranged from 10% to 0.1% of qPCR reaction, depending on the expression abundance of target genes. Target gene primers (Table 3) at 250 nM were used. […] 30S annealing/extension/read. […]
(§4) Human GAPDH target gene was detected in the qPCR reaction.

[4] = tested on: thermo-stable RT (e.g., MMLV or engineered MMLV); assay: RT-qPCR: RT tolerance to formalin; settings: for qPCR results from the RT products compared with the RT products without formalin: Human GAPDH
Protocol: as §3
as §2, with “annealing/extension/read. After qPCR reaction, Cq values from RT products with and without inhibitors were compared, and usually Cq values were delayed (bigger values) when inhibitors were present. The larger the Cq value relative to no inhibitor RT products, the more inhibition of RT reaction observed.” for “annealing/extension/read.”
as §4

## Heparin
[1]; Heparin 0.003 U/μl in the RT reaction, no K-Glu
  Cq delay: over 7
[1]; Heparin 0.0034 u/μl in RT reaction, GAPDH and 18S
  qPCR from the RT products compared with the RT products without heparin: greatly delayed

## N[C@@H](CCC(=O)[O-])C(=O)[O-].[K+].[K+] [K-Glu, Potassium Glutamate]
[1]
  Heparin tolerance: improves Heparin tolerance
[1]; Heparin 0.003 U/μl with 100 mM K-Glu present
  Cq delay: less than 1
[1]; Heparin 0.0034 u/μl plus 100 mM potassium Glutamate in RT reaction
  qPCR from the RT products compared with the RT products without heparin: did not show much delay
[2]
  tolerance to other inhibitors: without compromising tolerance

## O=C(OC[C@H]1O[C@@H](OC(=O)c2cc(O)c(O)c(OC(=O)c3cc(O)c(O)c(O)c3)c2)[C@H](OC(=O)c2cc(O)c(O)c(OC(=O)c3cc(O)c(O)c(O)c3)c2)[C@@H](OC(=O)c2cc(O)c(O)c(OC(=O)c3cc(O)c(O)c(O)c3)c2)[C@@H]1OC(=O)c1cc(O)c(O)c(OC(=O)c2cc(O)c(O)c(O)c2)c1)c1cc(O)c(O)c(OC(=O)c2cc(O)c(O)c(O)c2)c1 [Tannic acid]
[3]; Tannic acid 0.1 μg/μl in the RT reaction, no Poloxamer
  Cq delay: over 13
[3]; tannic acid 0.1 μg/μl, Human GAPDH
  qPCR results from the RT products compared with the RT products without tannic acid: greatly delayed

## C=O [Formalin]
[4]; Formalin 0.125% in RT reaction
  qPCR results from the RT products compared with the RT products without formalin: significantly delayed
[4]; formalin in RT reaction, without His-HCl
  Cq delay: about 4

## N.N.O=S(=O)(O)O [(NH4)2SO4]
[1]
  Heparin tolerance: also improves Heparin tolerance though not as effect as K-Glu
[2]
  tolerance to other inhibitors: compromises Ethanol and GC tolerance

## Cl.N[C@@H](Cc1c[nH]cn1)C(=O)O.O [His-HCl, histidine hydrochloride monohydrate]
[4]; Formalin 0.125% plus 15 to 20 mM His-HCl
  qPCR results from the RT products compared with the RT products without formalin: did not show a lot delay
[4]; formalin with 15 to 20 mM His-HCl present
  Cq delay: less than 1

## N[C@@H](Cc1c[nH]cn1)C(=O)O [histidine]
[4]; reaction mixtures containing formalin
  efficiency of the amplification reaction as compared to a control lacking histidine: improved the efficiency
